A short description of data set [1]: Zeta potential of liposomes as a function of pH. In kind it is physicochemical. To be noted: FIG. 2. An excerpt:
As discussed in Example 5, zeta potential measurements were obtained for the liposomes containing DSPEI and for the liposomes containing HDSG. […] This is likely indicative of a higher pKa and greater charge at physiological pH. […] The greater neutrality of DSPEI-containing liposomes is important for minimization of non-specific interactions with plasma proteins and cells under in vivo conditions and thus prolonged circulation in the blood, which is necessary for systemic drug and gene delivery, as well as delivery of gene modulators, to diseased tissues.
With continuing reference to FIG. 2, zeta potential measurements were also determined for liposomes prepared using dimethyldioctadecylammonium bromide (DDAB) (diamonds). […] Therefore DDAB-containing liposomes retain their cationic charge at physiological pH and are more likely to participate in non-specific interactions with plasma proteins under in vivo conditions. DDAB-containing liposomes are consequently cleared rapidly from circulation and are less suitable for drug or gene delivery to diseased tissues.
Zeta potential was measured using a ZETASIZER 2000 from Malver Instruments, Inc. (Southborough Mass.). […]

For data set [2] the following is noted: reported values; cited from earlier work.

For `CCCCCCCCCCCCCCCCCC[N+](C)(C)CCCCCCCCCCCCCCCCCC.[Br-]` [DDAB, dimethyldioctadecylammonium bromide, reference compound], the “pKa relative to the other lipids, inferred from zeta potential versus pH slope” value in data set [1] is on record as “higher than for either HDSG or DSPEI”.
Same read-out and setting: as for `CCCCCCCCCCCCCCCCCC(=O)OCC(COP(=O)(O)OCCNCc1c[nH]cn1)OC(=O)CCCCCCCCCCCCCCCCC` (stereo not shown) [DSPEI, distearoylphosphatidylethanolamine imidazole], the entry is “lower pKa than HDSG”.
In general, pKa refers to the pH at which an ionisable group is half protonated. As to `c1c[nH]cn1` [imidazole], the pKa result in data set [2] is given as “about 6.0”.
As for `NCCc1c[nH]cn1` [histamine], the pKa in data set [2] was 6.

Source of the values: patent US20050191344A1, “Liposome composition for delivery of therapeutic agents” (priority 2004, published 2005).
